Values of other authors in patent US8940506B2, “High-sensitive fluorescent energy transfer assay using fluoresent amino acids and fluorescent proteins” (The Regents of the University of California, priority 2008, dated 2015).

Test system: cancer cells
Details: by disrupting the interaction of ubiquitin E3 ligase MDM2 and its substrate p53

In the case of `COc1ccc(C2=N[C@@H](c3ccc(Cl)cc3)[C@@H](c3ccc(Cl)cc3)N2C(=O)N2CCNC(=O)C2)c(OC(C)C)c1` [Nutlin-3], the “apoptosis and growth inhibition of cancer cells” value is listed as “induce apoptosis and growth inhibition of cancer cells”.
